This assay deals with human aquaporin 9 (Homo sapiens (Human), UniProt O43315). Kind of assay: Calcein quenching fluostar assay (inhibition of human aquaporin 9). Type of assay: cell-based. To be noted: Human AQP9 cell line; example compounds used as 1 mM stock solutions in DMSO. How it is done:
Calcein Quenching Fluostar Assay
A calcein quenching fluostar assay was performed in order to investigate the biological activity of the newly synthesized examples 1 to 57. This type of assay is disclosed in J. Biol. Chem., 2011, 286, 44319-44325 and Am. J. Physiol. Renal Physiol. (2010), 298, F224-230.
1) Two days prior to commencement of the assay, seed 10,000 cells/well of 96 well black clear bottom plate (Greiner Poly-lysin plate). A 1:1 mix of Dulbecco's Modified Eagle's Medium: Nutrient Mixture F-12 (DMEM: F12) was obtained from Gibco. Tetracycline stock of 5 mg/ml in 96% ethanol is used. Medium: DMEM/F12/10% Donor Bovine Serum, Human AQP9 cell line+1:270,000 tetracyclin, mouse AQP9 cell line+1:2,700,000 tetracycline.
2) Day of assay: Flick/slam off the medium and add 50 μl/well of loading solution: 5 ml DMEM/F12/10% Donor Bovine Serum, 25 μl Calcein AM—from freshly dissolved aliquot in 50 μl DMSO (VWR #734-1434), and 100 μl Probenecid.
3) Incubate the well for 90 minutes at 37° C.
4) Perform one wash with 75 μl wash buffer.
5) Add 75 μl of an example compound prepared in wash buffer per well.
Example compounds are prepared in 500 μl U bottom PP plates (NUNC). 2.7 μl Substance in DMSO are added to row A; 180 μl of wash buffer+1% DMSO are added to rows B—H. 90 μl from row A are transferred and mixed with all other wells (up to row G) to make a 3-fold dilution series.
6) Assay in FLUOstar Optima at 25° C. Settings buffer addition at 135 μl/seconds, add 75 μl/well, record time course for 30 seconds, add sucrose buffer 3.6 seconds into recording.
7) Normalization to initial in Excel.
8) Fit to “exponential decay” function in GraphPad Prism 5.0, then arrange half live shrinking values according to wells and fit dose-response curves.
human aquaporin 9, sequence (O43315 whole entry): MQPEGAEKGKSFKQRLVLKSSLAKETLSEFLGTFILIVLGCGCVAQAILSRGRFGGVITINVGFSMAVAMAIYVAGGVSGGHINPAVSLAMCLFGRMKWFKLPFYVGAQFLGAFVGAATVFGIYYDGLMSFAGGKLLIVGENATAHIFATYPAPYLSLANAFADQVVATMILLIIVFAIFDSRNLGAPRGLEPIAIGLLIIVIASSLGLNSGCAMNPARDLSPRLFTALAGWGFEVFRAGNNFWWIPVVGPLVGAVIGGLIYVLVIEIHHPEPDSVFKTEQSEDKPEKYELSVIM
In the case of `CCn1c(SCC(=O)Nc2nnc(-c3ccc(OC(C)C)cc3)s2)nnc1C(C)C` [Example 29, 2-{[4-ethyl-5-(propan-2-yl)-4H-1,2,4-triazol-3-yl]sulfanyl}-N-{5-[4-(propan-2-yloxy)phenyl]-1,3,4-thiadiazol-2-yl}acetamide], the concentration giving a half-maximal response (EC50) is 90 nM.
On the same count and under the same terms, under `CCc1nnc(SCC(=O)Nc2nnc(-c3ccc(OCCOC)cc3)s2)n1CC` [Example 30, 2-[(diethyl-4H-1,2,4-triazol-3-yl)sulfanyl]-N-{5-[4-(2-methoxyethoxy)phenyl]-1,3,4-thiadiazol-2-yl}acetamide] stands 21 nM.
Same read-out and setting: under `CCn1c(SCC(=O)Nc2nnc(-c3ccc(OCCOC)cc3)s2)nnc1C(C)C` [Example 31, 2-{[4-ethyl-5-(propan-2-yl)-4H-1,2,4-triazol-3-yl]sulfanyl}-N-{5-[4-(2-methoxyethoxy)phenyl]-1,3,4-thiadiazol-2-yl}acetamide] stands 37 nM.
The same measure, in the same setting: as for `CCc1nnc(SCC(=O)Nc2nnc(-c3ccc(C#N)cc3)s2)n1CC` [Example 32, N-[5-(4-cyanophenyl)-1,3,4-thiadiazol-2-yl]-2-[(4,5-diethyl-4H-1,2,4-triazol-3-yl)sulfanyl]acetamide], the figure is 43 nM.
As for `CCc1nnc(SCC(=O)Nc2nnc(-c3ccc(C(F)(F)F)cc3)s2)n1CC` [Example 33, 2-[(4,5-diethyl-4H-1,2,4-triazol-3-yl)sulfanyl]-N-[5-(4-(trifluoromethyl)phenyl)-1,3,4-thiadiazol-2-yl]acetamide], the EC50 was 119 nM.
Same read-out and setting: under `CCc1nnc(SCC(=O)Nc2nnc(-c3ccc(OC(C)C)cc3)s2)n1CC` [Example 34, 2-[(4,5-diethyl-4H-1,2,4-triazol-3-yl)sulfanyl]-N-[5-(4-isopropoxyphenyl)-1,3,4-thiadiazol-2-yl]acetamide] stands 55 nM; under `CCc1nnc(SCC(=O)Nc2nnc(-c3ccc(Cl)cc3)s2)n1CC` [Example 35, N-[5-(4-chlorophenyl)-1,3,4-thiadiazol-2-yl]-2-[(4,5-diethyl-4H-1,2,4-triazol-3-yl)sulfanyl]acetamide], 54 nM.
For `CCc1nnc(SCC(=O)Nc2nnc(-c3ccc(OC)cc3)s2)n1C1CC1` [Example 36, 2-[(4-cyclopropyl-5-ethyl-4H-1,2,4-triazol-3-yl)sulfanyl]-N-[5-(4-methoxyphenyl)-1,3,4-thiadiazol-2-yl]acetamide], the EC50 is 51 nM and the pEC50 in the inhibition of human aquaporin 9 was 7.3.
Taken in the same sequence, the figures for `CCn1c(Cc2cccc(F)c2)nnc1SCC(=O)Nc1nnc(-c2ccc(OC)cc2)s1` [Example 37, 2-[(4-ethyl-5-(3-fluorobenzyl)-4H-1,2,4-triazol-3-yl)sulfanyl]-N-[5-(4-methoxyphenyl)-1,3,4-thiadiazol-2-yl]acetamide] were 132 nM and 6.9.
In the same order, the values of `CCn1c(SCC(=O)Nc2nnc(-c3ccc(O)cc3)s2)nnc1C1CC1` [Example 38, 2-[(5-cyclopropyl-4-ethyl-4H-1,2,4-triazol-3-yl)sulfanyl]-N-[5-(4-hydroxyphenyl)-1,3,4-thiadiazol-2-yl]acetamide] are 81 nM and 7.1.
Take `CCc1nnc(SCC(=O)Nc2nnc(-c3ccc(S(C)(=O)=O)cc3)s2)n1C1CC1` [Example 39, 2-[(4-cyclopropyl-5-ethyl-4H-1,2,4-triazol-3-yl)sulfanyl]-N-[5-(4-(methylsulfonyl)phenyl)-1,3,4-thiadiazol-2-yl]acetamide]: the EC50 was 135 nM.
As to `CCc1nnc(SCC(=O)Nc2nnc(-c3ccc(OC)cc3)s2)n1CCCO` [Example 40, 2-[(5-ethyl-4-(3-hydroxypropyl)-4H-1,2,4-triazol-3-yl)sulfanyl]-N-[5-(4-methoxyphenyl)-1,3,4-thiadiazol-2-yl]acetamide], the EC50 was 168 nM.
Consider `CCc1nnc(SCC(=O)Nc2nnc(-c3ccc(S(C)(=O)=O)cc3)s2)n1C` [Example 41, 2-[(5-ethyl-4-methyl-4H-1,2,4-triazol-3-yl)sulfanyl]-N-[5-(4-(methylsulfonyl)phenyl)-1,3,4-thiadiazol-2-yl]acetamide], for which the 50% effective concentration (EC50) was 490 nM and the pEC50 in the inhibition of human aquaporin 9 was 6.3.
In the same order, the values of `CCc1nnc(SCC(=O)Nc2nnc(-c3ccc(S(C)(=O)=O)cc3)s2)n1C(C)C` [Example 42, 2-[(5-ethyl-4-isopropyl-4H-1,2,4-triazol-3-yl)sulfanyl]-N-[5-(4-(methylsulfonyl)phenyl)-1,3,4-thiadiazol-2-yl]acetamide] are 76 nM and 7.1.
Take `CCn1c(SCC(=O)Nc2nnc(-c3ccc(OCCOC)cc3)s2)nnc1C1CC1` [Example 43, 2-[(5-cyclopropyl-4-ethyl-4H-1,2,4-triazol-3-yl)sulfanyl]-N-[5-(4-(2-methoxyethoxy)phenyl)-1,3,4-thiadiazol-2-yl]acetamide]: the concentration giving a half-maximal response (EC50) is 52 nM.
On the same count and under the same terms, as for `CCn1c(CCOC)nnc1SCC(=O)Nc1nnc(-c2ccc(OC)cc2)s1` [Example 44, 2-[(4-ethyl-5-(2-methoxyethyl)-4H-1,2,4-triazol-3-yl)sulfanyl]-N-[5-(4-methoxyphenyl)-1,3,4-thiadiazol-2-yl]acetamide], the figure is 457 nM; as for `CCn1c(SCC(=O)Nc2nnc(-c3ccc(S(C)(=O)=O)cc3)s2)nnc1C1CCCC1` [Example 45, (2-[(5-cyclopentyl-4-ethyl-4H-1,2,4-triazol-3-yl)sulfanyl]-N-[5-(4-methanesulfonylphenyl)-1,3,4-thiadiazol-2-yl]acetamide)], 40 nM; as for `CCc1nnc(SCC(=O)Nc2nnc(-c3ccc(OC)cc3)s2)n1CCOC` [Example 46, 2-[(5-ethyl-4-(2-methoxyethyl)-4H-1,2,4-triazol-3-yl)sulfanyl]-N-[5-(4-methoxyphenyl)-1,3,4-thiadiazol-2-yl]acetamide], 112 nM.
The same measure, in the same setting: under `CCc1nnc(SCC(=O)Nc2nnc(-c3ccc(OC)cc3)s2)n1CCCOC` [Example 47, 2-{[5-ethyl-4-(3-methoxypropyl)-4H-1,2,4-triazol-3-yl]sulfanyl}-N-[5-(4-methoxyphenyl)-1,3,4-thiadiazol-2-yl]acetamide] stands 159 nM; under `CCn1c(CN2CCOCC2)nnc1SCC(=O)Nc1nnc(-c2ccc(OC)cc2)s1` [Example 48, 2-{[4-ethyl-5-(morpholin-4-ylmethyl)-4H-1,2,4-triazol-3-yl]sulfanyl}-N-[5-(4-methoxyphenyl)-1,3,4-thiadiazol-2-yl]acetamide], 230 nM; under `CCc1nnc(SCC(=O)Nc2nnc(-c3ccccn3)s2)n1CC` [Example 49, 2-[(4,5-diethyl-4H-1,2,4-triazol-3-yl)sulfanyl]-N-[5-(pyridin-2-yl)-1,3,4-thiadiazol-2-yl]acetamide], 224 nM.

Source of the values: US10730865B2, “Compounds for modulating aquaporins” (APOGLYX AB, priority 2016, dated 2020).
